Results as given in patent US20240383874A1, “BENZENE RING DERIVATIVE, AND COMPOSITION AND PHARMACEUTICAL USE THEREOF” (Xizang Haisco Pharmaceutical Co., Ltd., priority 2020, published 2024).

Test system: 22RV1 cells
Experiment: Experiment 2 on inhibiting 22RV1 cell proliferation (7 days, CellTiter-Glo)
Type: cell-based
Conditions: 1% css-FBS phenol red-free medium, incubated with compound 7 days, read-out: IC50 values on proliferation inhibition of 22RV1 cells
Procedure: Prostate cancer cells 22RV1 were purchased from ATCC, the cell medium was RPMI 1640+10% FBS, and the cells were cultured in an incubator at 37° C. under 5% CO2. On day 1, the cells in an exponential phase were collected. With a 1% css-FBS phenol red-free medium, the cell suspension was adjusted to a corresponding concentration, plated at 2000 cells/well and incubated overnight. On day 2, compounds at different concentrations were added, and the plate was placed in the incubator and incubated for further 7 days. After the incubation was completed, according to operation instructions for a CellTiter-Glo kit (Promega, G7573), 50 μL of CTG solution, which was already pre-melted and equilibrated to room temperature, was added to each well, and the mixtures were uniformly mixed for 2 min using a microplate shaker. The plate was placed at room temperature for 10 min, and then fluorescence signal values were measured using a microplate reader (PHERAstar FSX). The results were processed according to formula (2), the survival rate of the compound at different concentrations was calculated, and the IC50 value of the compound with a survival rate of 50% was calculated using origin9.2 software with DoseResp function, wherein RLU compound was the readout of the treated group, and RLU control was the average value of the DMSO vehicle control group.

| Compound | IC50 [nM] |
| --- | --- |
| CC(C)(c1ccc(OCc2ccnc(N3CCN(CC4CCN(C5CCN(c6cccc7c6C(=O)N(C6CCC(=O)NC6=O)C7=O)CC5)CC4)CC3)n2)cc1)c1cc(Cl)c(OCCCl)c(C#N)c1 (stereo not drawn) [Compound 12, 3-chloro-2-(2-chloroethoxy)-5-(2-(4-((2-(4-((1′-(2-(2,6-dioxopiperidin-3-yl)-1,3-dioxoisoindolin-4-yl)-[1,4′-bipiperidin]-4-yl)methyl)piperazin-1-yl)pyrimidin-4-yl)methoxy)phenyl)propan-2-yl)benzonitrile] | 804 |
| CC(C)(c1ccc(OCc2ccnc(N3CCN(CC4CCN(CC5CCN(c6ccc7c(c6)C(=O)N(C6CCC(=O)NC6=O)C7=O)CC5)CC4)CC3)n2)cc1)c1cc(Cl)c(OCCCl)c(C#N)c1 (stereo not drawn) [Compound 13, 3-chloro-2-(2-chloroethoxy)-5-(2-(4-((2-(4-((1-((1-(2-(2,6-dioxopiperidin-3-yl)-1,3-dioxoisoindolin-5-yl)piperidin-4-yl)methyl)piperidin-4-yl)methyl)piperazin-1-yl)pyrimidin-4-yl)methoxy)phenyl)propan-2-yl)benzonitrile] | 721 |
| CC(C)(c1ccc(OCc2ccnc(N3C[C@@H]4CN(C5CCN(CC6CCN(c7ccc8c(c7)C(=O)N(C7CCC(=O)NC7=O)C8=O)CC6)CC5)C[C@@H]4C3)n2)cc1)c1cc(Cl)c(OCCCl)c(C#N)c1 (stereo partly drawn) [Compound 16, 3-chloro-2-(2-chloroethoxy)-5-(2-(4-((2-((3aR,6aS)-5-(1-((1-(2-(2,6-dioxopiperidin-3-yl)-1,3-dioxoisoindolin-5-yl)piperidin-4-yl)methyl)piperidin-4-yl)hexahydropyrrolo[3,4-c]pyrrol-2(1H)-yl)pyrimidin-4-yl)methoxy)phenyl)propan-2-yl)benzonitrile] | 802 |
| CC(C)(c1ccc(OCc2ccnc(N3C[C@@H]4CN(C5CCN(C6CN(c7ccc8c(c7)C(=O)N(C7CCC(=O)NC7=O)C8=O)C6)CC5)C[C@@H]4C3)n2)cc1)c1cc(Cl)c(OCCCl)c(C#N)c1 (stereo partly drawn) [Compound 17, 3-chloro-2-(2-chloroethoxy)-5-(2-(4-((2-((3aR,6aS)-5-(1-(1-(2-(2,6-dioxopiperidin-3-yl)-1,3-dioxoisoindolin-5-yl)azetidin-3-yl)piperidin-4-yl)hexahydropyrrolo[3,4-c]pyrrol-2(1H)-yl)pyrimidin-4-yl)methoxy)phenyl)propan-2-yl)benzonitrile] | 1020 |
| CC(C)(c1ccc(OCc2ccnc(N3CCC4(CC3)CN(C3CCN(C5CN(c6ccc7c(c6)C(=O)N(C6CCC(=O)NC6=O)C7=O)C5)CC3)C4)n2)cc1)c1cc(Cl)c(OCCCl)c(C#N)c1 (stereo not drawn) [Compound 20, 3-chloro-2-(2-chloroethoxy)-5-(2-(4-((2-(2-(1-(1-(2-(2,6-dioxopiperidin-3-yl)-1,3-dioxoisoindolin-5-yl)azetidin-3-yl)piperidin-4-yl)-2,7-diazaspiro[3.5]nonan-7-yl)pyrimidin-4-yl)methoxy)phenyl)propan-2-yl)benzonitrile] | 954 |

The next compounds have a lower IC50 than those just listed; values first:

| IC50 [nM] | Compound |
| --- | --- |
| 356 | CC(C)(c1ccc(OCc2ccnc(N3CCN(CC4CCN(C5CCN(c6ccc7c(c6)C(=O)N(C6CCC(=O)NC6=O)C7=O)CC5)CC4)CC3)n2)cc1)c1cc(Cl)c(OCCCl)c(C#N)c1 (stereo not drawn) [Compound 11, 3-chloro-2-(2-chloroethoxy)-5-(2-(4-((2-(4-((1′-(2-(2,6-dioxopiperidin-3-yl)-1,3-dioxoisoindolin-5-yl)-[1,4′-bipiperidin]-4-yl)methyl)piperazin-1-yl)pyrimidin-4-yl)methoxy)phenyl)propan-2-yl)benzonitrile] |
| 628 | CC(C)(c1ccc(OCc2ccnc(N3CCN(CC4CCN(CC5CCN(c6cccc7c6C(=O)N(C6CCC(=O)NC6=O)C7=O)CC5)CC4)CC3)n2)cc1)c1cc(Cl)c(OCCCl)c(C#N)c1 (stereo not drawn) [Compound 14, 3-chloro-2-(2-chloroethoxy)-5-(2-(4-((2-(4-((1-((1-(2-(2,6-dioxopiperidin-3-yl)-1,3-dioxoisoindolin-4-yl)piperidin-4-yl)methyl)piperidin-4-yl)methyl)piperazin-1-yl)pyrimidin-4-yl)methoxy)phenyl)propan-2-yl)benzonitrile] |
| 507 | CC(C)(c1ccc(OCc2ccnc(N3CCC4(CC3)CN(C3CCN(CC5CCN(c6ccc7c(c6)C(=O)N(C6CCC(=O)NC6=O)C7=O)CC5)CC3)C4)n2)cc1)c1cc(Cl)c(OCCCl)c(C#N)c1 (stereo not drawn) [Compound 21, 3-chloro-2-(2-chloroethoxy)-5-(2-(4-((2-(2-(1-((1-(2-(2,6-dioxopiperidin-3-yl)-1,3-dioxoisoindolin-5-yl)piperidin-4-yl)methyl)piperidin-4-yl)-2,7-diazaspiro[3.5]nonan-7-yl)pyrimidin-4-yl)methoxy)phenyl)propan-2-yl)benzonitrile] |
| 500 | CC(C)(c1ccc(OCc2ccnc(N3CC4(CCN(C5CCN(C6CN(c7ccc8c(c7)C(=O)N(C7CCC(=O)NC7=O)C8=O)C6)CC5)CC4)C3)n2)cc1)c1cc(Cl)c(OCCCl)c(C#N)c1 (stereo not drawn) [Compound 23, 3-chloro-2-(2-chloroethoxy)-5-(2-(4-((2-(7-(1-(1-(2-(2,6-dioxopiperidin-3-yl)-1,3-dioxoisoindolin-5-yl)azetidin-3-yl)piperidin-4-yl)-2,7-diazaspiro[3.5]nonan-2-yl)pyrimidin-4-yl)methoxy)phenyl)propan-2-yl)benzonitrile] |
| 569 | CC(C)(c1ccc(OCc2ccnc(N3CC4(CCN(C5CCN(CC6CCN(c7ccc8c(c7)C(=O)N(C7CCC(=O)NC7=O)C8=O)CC6)CC5)CC4)C3)n2)cc1)c1cc(Cl)c(OCCCl)c(C#N)c1 (stereo not drawn) [Compound 24, 3-chloro-2-(2-chloroethoxy)-5-(2-(4-((2-(7-(1-((1-(2-(2,6-dioxopiperidin-3-yl)-1,3-dioxoisoindolin-5-yl)piperidin-4-yl)methyl)piperidin-4-yl)-2,7-diazaspiro[3.5]nonan-2-yl)pyrimidin-4-yl)methoxy)phenyl)propan-2-yl)benzonitrile] |
| 542 | CC(C)(c1ccc(OCc2ccnc(N3CC4(CCN(C5CCN(CC6CCN(c7cccc8c7C(=O)N(C7CCC(=O)NC7=O)C8=O)CC6)CC5)CC4)C3)n2)cc1)c1cc(Cl)c(OCCCl)c(C#N)c1 (stereo not drawn) [Compound 25, 3-chloro-2-(2-chloroethoxy)-5-(2-(4-((2-(7-(1-((1-(2-(2,6-dioxopiperidin-3-yl)-1,3-dioxoisoindolin-4-yl)piperidin-4-yl)methyl)piperidin-4-yl)-2,7-diazaspiro[3.5]nonan-2-yl)pyrimidin-4-yl)methoxy)phenyl)propan-2-yl)benzonitrile] |
| 548 | Cn1c(=O)n(C2CCC(=O)NC2=O)c2cccc(CN3CC(N4CCC(N5CCC6(CC5)CN(c5nccc(COc7ccc(C(C)(C)c8cc(Cl)c(OCCCl)c(C#N)c8)cc7)n5)C6)CC4)C3)c21 (stereo not drawn) [Compound 26, 3-chloro-2-(2-chloroethoxy)-5-(2-(4-((2-(7-(1-(1-((1-(2,6-dioxopiperidin-3-yl)-3-methyl-2-oxo-2,3-dihydro-1H-benzo[d]imidazol-4-yl)methyl)azetidin-3-yl)piperidin-4-yl)-2,7-diazaspiro[3.5]nonan-2-yl)pyrimidin-4-yl)methoxy)phenyl)propan-2-yl)benzonitrile] |
